Assay results reported in patent publication US20210057047A1, “IN-SILICO METHOD FOR DESIGNING A (D)-POLYPEPTIDE LIGAND” (THE GOVERNING COUNCIL OF THE UNIVERSITY OF TORONTO, priority 2018, published 2021).
Square brackets hold non-standard residues; d marks the D form. Peptide text beside a SMILES is read from it.

Legend:
Proteinase K (ProtK) = target: T1, Proteinase K (ProtK) (Parengyodontium album, UniProt P06873); test: in vitro; type: in vitro ADME
T1 construct: purchased Bioshop
Experimental: (§1) Stocks of 20 μM peptide in 200 μL total volume (10 mM Tris-base, 10 mM NaCl, pH 7.4) were supplemented with 5 μM CaCl2) and 30 uL removed for the untreated T0 sample. Proteinase K (ProtK, Bioshop) was then added to a final concentration of 100 μg/mL. Samples were incubated at 37° C. and 30 μL removed after each time point and protease activity blocked by the addition of 10 mM PMSF (200 mM stock dissolved in isopropanol). Protease inactivated samples were frozen at −20° C. until further use. Digestions were repeated three times. Frozen samples were supplemented with 8 μL sample loading buffer (4× NuPAGE, ThermoFisher Scientific), boiled ([…]) for 10 minutes, and centrifuged (12 000 rpm, 10 min) prior to loading the gel (12% NuPAGE Bis-Tris (ThermoFisher Scientific) with MES running buffer). Gels were run at 200 V for […] and stained using Coomassie Brilliant Blue dye. Densitometry of bands was determined using ImageJ software (40) with back ground subtraction. All samples were normalized to their respective untreated sample (T0).

in vitro = in vitro ADME; details: isolated enzyme proteinase k, pH 7.4
Experimental: as §1

GLP2R = target: T2, GLP2R (Homo sapiens, UniProt O95838); test: CRE-luciferase reporter assay in HEK293 cells stably expressing GLP2R; type: cell-based
T2 construct: expressed in transfected cells; host or cells: HEK293
T2 sequence (O95838 1-553): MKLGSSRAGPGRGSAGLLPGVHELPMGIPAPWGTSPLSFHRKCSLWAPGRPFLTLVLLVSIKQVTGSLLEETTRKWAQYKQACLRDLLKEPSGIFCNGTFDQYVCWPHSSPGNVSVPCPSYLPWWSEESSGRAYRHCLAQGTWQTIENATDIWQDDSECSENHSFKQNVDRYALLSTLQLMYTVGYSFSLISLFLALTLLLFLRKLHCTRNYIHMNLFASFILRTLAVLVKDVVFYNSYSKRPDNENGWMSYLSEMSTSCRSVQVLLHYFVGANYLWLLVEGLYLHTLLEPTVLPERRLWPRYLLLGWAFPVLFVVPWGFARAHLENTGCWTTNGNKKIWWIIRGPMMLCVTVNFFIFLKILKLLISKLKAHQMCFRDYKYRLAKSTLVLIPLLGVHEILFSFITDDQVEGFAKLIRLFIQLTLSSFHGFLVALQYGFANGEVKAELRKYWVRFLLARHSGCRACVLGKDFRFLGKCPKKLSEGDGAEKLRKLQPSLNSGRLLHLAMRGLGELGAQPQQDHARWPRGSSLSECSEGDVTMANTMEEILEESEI
Experimental: This activates protein kinase A (PKA) to phosphorylate and activate cAMP response element-binding protein (CREB). […] All of the (L)-GLP-2 is degraded in about 1 hr, while more than 90% of the (D)-analog is still detectable at 6 hours.
FIG. 14 is a series of charts and experiments showing the activity and protease degradation of (L)- and (D)-GLP2 polypeptides. (A) HEK293 cells stably expressing GLP2R and CRE-luciferase were stimulated with different concentrations of (L)- and (D)-GLP2 peptides. Luciferase activity was measured. The experiments were performed in triplicate. (B) Sample gel images of (L) and (D)-GLP-2 peptides treated with Proteinase K (ProtK) over 5 hours. Gels were stained with Coomassie Brilliant Blue dye and band densitometry calculated using ImageJ (40) with background subtraction. (C) Quantification of remaining peptide post ProtK treatment in 60 min intervals. Intensities of peptide bands were normalized to the intensity of the untreated peptide (T0) and converted to a percentage relative to T0. […] Error bars are reporting standard error. Data represent the average of 3 independent experiments.

RLN receptor (RXFP1) = target: T3, RLN receptor (RXFP1) (Homo sapiens, UniProt Q9HBX9); test: CRE-luciferase reporter assay in HEK293 cells stably expressing RXFP1; type: cell-based
T3 construct: expressed in transfected cells; host or cells: HEK293
T3 sequence (Q9HBX9 1-757): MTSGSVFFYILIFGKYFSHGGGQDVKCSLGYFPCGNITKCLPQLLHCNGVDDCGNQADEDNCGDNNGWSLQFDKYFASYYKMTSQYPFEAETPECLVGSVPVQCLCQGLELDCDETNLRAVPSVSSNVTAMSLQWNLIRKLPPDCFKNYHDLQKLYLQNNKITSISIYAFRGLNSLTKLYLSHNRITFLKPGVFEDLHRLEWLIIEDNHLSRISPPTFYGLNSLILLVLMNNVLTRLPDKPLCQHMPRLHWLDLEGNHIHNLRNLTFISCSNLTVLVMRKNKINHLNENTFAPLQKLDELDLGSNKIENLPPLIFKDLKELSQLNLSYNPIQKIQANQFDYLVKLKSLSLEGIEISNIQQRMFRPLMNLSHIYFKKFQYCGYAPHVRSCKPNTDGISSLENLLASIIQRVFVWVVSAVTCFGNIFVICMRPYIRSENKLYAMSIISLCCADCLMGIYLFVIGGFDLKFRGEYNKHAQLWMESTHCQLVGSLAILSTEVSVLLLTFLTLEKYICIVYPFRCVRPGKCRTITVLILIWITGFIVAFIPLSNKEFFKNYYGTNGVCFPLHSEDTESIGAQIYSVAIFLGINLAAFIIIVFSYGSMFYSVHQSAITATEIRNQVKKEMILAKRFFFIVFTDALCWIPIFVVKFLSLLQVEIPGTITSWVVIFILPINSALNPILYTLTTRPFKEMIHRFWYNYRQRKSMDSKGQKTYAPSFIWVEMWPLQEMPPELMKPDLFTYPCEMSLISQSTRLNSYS
Experimental: This activates protein kinase A (PKA) to phosphorylate and activate cAMP response element-binding protein (CREB). […] All of the (L)-RLN was degraded in about 1 hr, while about 90% of the (D)-analog was still detectable at 6 hours.
FIG. 15 is a series of charts and experiments showing the activity and protease degradation of (D)-RLN_1 (non-mutated) and (D)-RLN_2 (mutated) polypeptides. (A) HEK293 cells stably expressing RXFP1 and CRE-luciferase were stimulated with different concentrations of (D)-RLN_1 and (D)-RLN_2 peptides. Luciferase activity was measured. The experiments were performed in triplicate. (B) Sample gel images of (L) and (D)-RLN peptides treated with Proteinase K (ProtK) over 5 hours. Gels were stained with Coomassie Brilliant Blue dye and band densitometry calculated using ImageJ (40) with background subtraction. (C) Quantification of remaining peptide post ProtK treatment in 60 min intervals. Intensities of peptide bands were normalized to the intensity of the untreated peptide (T0) and converted to a percentage relative to T0. […] Error bars are reporting standard error. Data represent the average of 3 independent experiments.

T1 sequence (P06873 106-384): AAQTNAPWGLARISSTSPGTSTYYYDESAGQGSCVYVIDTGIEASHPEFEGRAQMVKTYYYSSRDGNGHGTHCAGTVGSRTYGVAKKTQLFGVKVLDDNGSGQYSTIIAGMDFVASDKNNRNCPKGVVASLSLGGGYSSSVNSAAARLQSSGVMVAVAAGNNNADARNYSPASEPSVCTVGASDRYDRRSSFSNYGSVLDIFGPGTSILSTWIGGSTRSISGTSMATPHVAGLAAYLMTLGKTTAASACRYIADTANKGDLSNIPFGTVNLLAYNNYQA

| remaining at 6 h, 20 µM (in vitro) [%] | Structure (SMILES) | degradation by ProtK (in words) (Proteinase K (ProtK)) | activation of GLP2R, potency and efficacy (in words) (GLP2R) | activation of RLN receptor, potency and efficacy (in words) (RLN receptor (RXFP1)) | remaining at 6 h, 20 µM (Proteinase K (ProtK); isolated enzyme proteinase k, pH 7.4, after 6 hours exposure to ProtK, relative to T0, read-out: peptide still detectable) [%] |
| --- | --- | --- | --- | --- | --- |
| > 90 | CC[C@@H](C)[C@@H](NC(=O)[C@@H](C)NC(=O)[C@@H](C)NC(=O)[C@H](NC(=O)[C@@H](C)NC(=O)[C@@H](Cc1ccccc1)NC(=O)[C@@H](Cc1c[nH]c2ccccc12)NC(=O)[C@@H](Cc1ccccc1)NC(=O)CNC(=O)[C@H](NC(=O)[C@@H](CCCNC(=N)N)NC(=O)[C@@H](CC(=O)O)NC(=O)[C@H](NC(=O)[C@@H](CCCCN)NC(=O)[C@H](NC(=O)[C@H](NC(=O)[C@H](N)CC(=O)O)[C@H](C)O)[C@H](C)CC)[C@H](C)O)[C@H](C)CC)C(C)C)C(=O)N[C@H](CC(C)C)C(=O)N[C@@H](C(=O)N[C@H](CC(C)C)C(=O)N[C@H](CC(C)C)C(=O)N[C@H](CCCCN)C(=O)N[C@H](CCSC)C(=O)N[C@H](CCSC)C(=O)N[C@H](CCC(=O)O)C(=O)N[C@H](CCC(=O)O)C(=O)N[C@H](Cc1ccccc1)C(=O)N[C@@H](C(=O)NCC(=O)N[C@H](CC(=O)O)C(=O)N[C@H](C)C(=O)N[C@H](Cc1c[nH]cn1)C(=O)O)C(C)C)C(C)C [(D)-GLP2] (H-[dD][dT][dI][dK][dT][dD][dR][dI]G[dF][dW][dF][dA][dV][dA][dA][dI][dL][dV][dL][dL][dK][dM][dM][dE][dE][dF][dV]G[dD][dA][dH]-OH; N-terminus and C-terminus assumed) | persists after 5 hours | potency and efficacy comparable to (L)-GLP-2 | – | – |
| – | CC[C@@H](C)[C@@H](NC(=O)[C@@H](CC(C)C)NC(=O)[C@@H](CC(C)C)NC(=O)[C@@H](CCC(=O)O)NC(=O)[C@@H](CCCCN)NC(=O)[C@@H](CO)NC(=O)[C@H](NC(=O)[C@@H](Cc1c[nH]c2ccccc12)NC(=O)[C@H](N)CO)[C@H](C)O)C(=O)N[C@H](CCC(=O)O)C(=O)N[C@@H](C(=O)N[C@@H](C(=O)N[C@H](CC(N)=O)C(=O)N[C@H](CC(=O)O)C(=O)N[C@H](CC(C)C)C(=O)N[C@H](CCC(N)=O)C(=O)N[C@H](CCCCN)C(=O)N[C@H](CCCNC(=N)N)C(=O)NCC(=O)N[C@H](CS)C(=O)N[C@H](CC(C)C)C(=O)N[C@H](CCCCN)C(=O)N[C@@H](C(=O)N[C@@H](C(=O)N[C@H](CCC(=O)O)C(=O)N[C@H](CCC(=O)O)C(=O)N[C@H](CCSC)C(=O)N[C@H](Cc1c[nH]c2ccccc12)C(=O)N[C@H](CO)C(=O)O)C(C)C)[C@H](C)CC)[C@H](C)CC)[C@H](C)CC [(D)-RLN] (H-[dS][dW][dT][dS][dK][dE][dL][dL][dI][dE][dI][dI][dN][dD][dL][dQ][dK][dR]G[dC][dL][dK][dI][dV][dE][dE][dM][dW][dS]-OH; N-terminus and C-terminus assumed) | persists after 5 hours | – | potency and efficacy comparable to (L)-RLN | ~90 |
